Measured values published in patent US20240391862A1, “(1,4,5-TRISUBSTITUTED-1H-PYRAZOL-3-YL)OXY-2-ALKOXY ALKYL ACIDS AND THEIR DERIVATIVES, THEIR SALTS AND THEIR USE AS HERBICIDAL AGENTS” (Bayer AKtiengesellschaft, priority 2021, published 2024).

Tests used:
DIGSA [1] = experiment: Pre-emergence herbicidal effect, greenhouse pot test; assay type: in vivo, Digitaria sanguinalis; conditions: 320 g/ha, scored visually after about 3 weeks vs untreated controls
Excerpt: (§1) Seeds of monocotyledonous and dicotyledonous weed plants and crop plants are placed in plastic or organic planting pots and covered with soil. The compounds of the invention, formulated in the form of wettable powders (WP) or as emulsion concentrates (EC), are then applied to the surface of the covering soil as aqueous suspension or emulsion with addition of 0.5% additive at a water application rate equivalent to 600 l/ha. After the treatment, the pots are placed in a greenhouse and kept under good growth conditions for the trial plants. After about 3 weeks, the effect of the preparations is scored visually in comparison with untreated controls as percentages. For example, 100% activity=the plants have died, 0% activity=like control plants.
(§2) Tables 1a to 19c below show the effects/crop compatibilities of selected compounds of the general formula (I) on various harmful plants at an application rate corresponding to 20 to 320 g/ha, which were obtained by the trial procedure specified above.
(§3) • ALOMY: Alopecurus myosuroides SETVI: Setaria viridis • AVEFA: Avena fatua POLCO: Fallopia convolvulus • AMARE: Amaranthus retroflexus ECHCG: Echinochloa crus-galli • LOLRJ: Lolium rigidum STEME: Stellaria media • VERPE: Veronica persica MATIN: Tripleurospermum inodorum • DIGSA: Digitaria sanguinalis ABUTH: Abutylon threophrasti • TRZAS: Triticum aestivum VIOTR: Viola tricolor • BRSNW: Brassica napus ZEAMX: Zea mays • PHBPU: Ipomoea purpurea GLXMA: Glycine max • ORYSA: Oryza sativa HORMU: Hordeum murinum

LOLRI [2] = experiment: as above; assay type: in vivo, Lolium rigidum; conditions: 320 g/ha, scored visually after about 3 weeks vs untreated controls
Excerpt: as §1, §2, §3

SETVI [3] = experiment: Post-emergence herbicidal effect, greenhouse pot test; assay type: in vivo, Setaria viridis; conditions: 320 g/ha
In short: (§4)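 Greenhouse pot plants in sandy loam receive a one-leaf-stage spray at 20 to 320 g/ha. Activity is assessed visually around 3 weeks afterwards on a 0–100% scale, where 100% means the plants have died.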

ECHCG [4] = experiment: as above; assay type: in vivo, Echinochloa crus-galli
In short: as §4

AVEFA = experiment: Pre-emergence herbicidal effect, greenhouse pot test; assay type: in vivo, Avena fatua; conditions: 320 g/ha, scored visually after about 3 weeks vs untreated controls
Excerpt: as §1, §2, §3

ZEAMX [5] = experiment: Pre-emergence herbicidal effect and crop plant compatibility, greenhouse pot test; assay type: in vivo, Zea mays; conditions: 80 g/ha, scored visually after about 3 weeks vs untreated controls
Excerpt: as §1, §2, §3

ECHCG [6] = experiment: Pre-emergence herbicidal effect, greenhouse pot test; assay type: in vivo, Echinochloa crus-galli; conditions: Echinochloa crus-galli, 504 h, 320 g/ha, scored visually after about 3 weeks vs untreated controls, read-out: Pre-emergence effect at 320 g/ha against ECHCG in %
Excerpt: as §1, §2, §3

ALOMY = experiment: Post-emergence herbicidal effect, greenhouse pot test; assay type: in vivo, Alopecurus myosuroides; conditions: Alopecurus myosuroides, 504 h, visual rating about 3 weeks after treatment, read-out: Post-emergence effect against ALOMY
In short: as §4

POLCO [7] = experiment: as above; assay type: in vivo, Fallopia convolvulus; conditions: Fallopia convolvulus, 504 h, read-out: Post-emergence effect against POLCO in %
In short: as §4

VERPE = experiment: as above; assay type: in vivo, Veronica persica; conditions: Veronica persica, 504 h, read-out: Post-emergence effect against VERPE in %
In short: as §4

PHBPU [8] = experiment: Pre-emergence herbicidal effect, greenhouse pot test; assay type: in vivo, Ipomoea purpurea; conditions: 320 g/ha, scored visually after about 3 weeks vs untreated controls
Excerpt: as §1, §2, §3

PHBPU [9] = experiment: Post-emergence herbicidal effect, greenhouse pot test; assay type: in vivo, Ipomoea purpurea; conditions: 320 g/ha
In short: as §4

MATIN [10] = experiment: Pre-emergence herbicidal effect, greenhouse pot test; assay type: in vivo, Tripleurospermum inodorum; conditions: Tripleurospermum inodorum, 504 h, 320 g/ha, scored visually after about 3 weeks vs untreated controls, read-out: Pre-emergence effect at 320 g/ha against MATIN in %
Excerpt: as §1, §2, §3

LOLRI [11] = experiment: Post-emergence herbicidal effect, greenhouse pot test; assay type: in vivo, Lolium rigidum; conditions: Lolium rigidum, 504 h, read-out: Post-emergence effect against LOLRI in %
In short: as §4

MATIN [12] = experiment: as above; assay type: in vivo, Tripleurospermum inodorum; conditions: Tripleurospermum inodorum, 504 h, 320 g/ha, read-out: Post-emergence effect against MATIN in %
In short: as §4

POLCO [13] = experiment: Pre-emergence herbicidal effect, greenhouse pot test; assay type: in vivo, Fallopia convolvulus; conditions: Fallopia convolvulus, 504 h, 320 g/ha, scored visually after about 3 weeks vs untreated controls, read-out: Pre-emergence effect at 320 g/ha against POLCO in %
Excerpt: as §1, §2, §3

AMARE = experiment: as above; assay type: in vivo, Amaranthus retroflexus; conditions: scored visually after about 3 weeks vs untreated controls
Excerpt: as §1, §2, §3

SETVI [14] = experiment: as above; assay type: in vivo, Setaria viridis; conditions: Setaria viridis, 504 h, 320 g/ha, scored visually after about 3 weeks vs untreated controls, read-out: Pre-emergence effect at 320 g/ha against SETVI in %
Excerpt: as §1, §2, §3

GLXMA [15] = experiment: Pre-emergence herbicidal effect and crop plant compatibility, greenhouse pot test; assay type: in vivo, Glycine max; conditions: 80 g/ha, scored visually after about 3 weeks vs untreated controls
Excerpt: as §1, §2, §3

TRZAS [16] = experiment: as above; assay type: in vivo, Triticum aestivum; conditions: 80 g/ha, scored visually after about 3 weeks vs untreated controls
Excerpt: as §1, §2, §3

DIGSA [17] = experiment: Post-emergence herbicidal effect, greenhouse pot test; assay type: in vivo, Digitaria sanguinalis; conditions: Digitaria sanguinalis, 504 h, visual rating about 3 weeks after treatment, read-out: Post-emergence effect against DIGSA
In short: as §4

ZEAMX [18] = experiment: Post-emergence herbicidal effect and crop plant compatibility, greenhouse pot test; assay type: in vivo, Zea mays; conditions: 20 g/ha, one-leaf stage, rated visually after about 3 weeks vs untreated controls
In short: as §4

TRZAS [19] = experiment: as above; assay type: in vivo, Triticum aestivum; conditions: for Post-emergence effect against TRZAS: visual rating about 3 weeks after treatment, crop plant
In short: as §4

GLXMA [20] = experiment: as above; assay type: in vivo, Glycine max; conditions: 20 g/ha, visual rating about 3 weeks after treatment, crop plant
Excerpt: as §3
Seeds of monocotyledonous and dicotyledonous weeds and crop plants are placed in sandy loam in plastic or organic planting pots, covered with soil and cultivated in a greenhouse under controlled growth conditions. 2 to 3 weeks after sowing, the trial plants are treated at the one-leaf stage. The compounds of the invention, formulated in the form of wettable powders (WP) or as emulsion concentrates (EC), are then sprayed onto the green parts of the plants as aqueous suspension or emulsion with addition of 0.5% additive at a water application rate of 600 l/ha (converted). After the test plants have been kept in the greenhouse under optimum growth conditions for about 3 weeks, the activity of the preparations is rated visually in comparison to untreated controls. For example, 100% activity=the plants have died, 0% activity=like control plants.
Tables 20a to 38c below show the effects/crop compatibilities of selected compounds of the general formula (I) on various harmful plants at an application rate corresponding to 20 to 320 g/ha, which were obtained by the trial procedure specified above.

Question: Which results are given for `COC(=O)C(OC)Oc1nn(-c2ncccc2F)c(-c2ccc(F)cc2F)c1Br` (stereo not shown) [Example I-07]?
Answer: Pre-emergence effect at 320 g/ha against DIGSA in % (DIGSA [1]): 90%; Pre-emergence effect at 320 g/ha against LOLRI in % (LOLRI [2]): 90%; pest or weed control at 320 g/ha (SETVI [3]; Setaria viridis, 504 h, read-out: Post-emergence effect against SETVI in %): 80%; pest or weed control at 80 g/ha (ECHCG [4]; Echinochloa crus-galli, 504 h, 80 g/ha, read-out: Post-emergence effect against ECHCG in %): 80%; pest or weed control at 320 g/ha (ECHCG [4]; Echinochloa crus-galli, 504 h, 320 g/ha, read-out: Post-emergence effect against ECHCG in %): 80%; Pre-emergence effect at 320 g/ha against AVEFA in % (AVEFA): 80%; Pre-emergence effect at 80 g/ha against ZEAMX in % (ZEAMX [5]): 10%; pest or weed control at 320 g/ha (ECHCG [6]): 90%; pest or weed control at 80 g/ha (ALOMY; 80 g/ha): 90%; pest or weed control at 320 g/ha (ALOMY; 320 g/ha): 90%; pest or weed control at 80 g/ha (POLCO [7]; 80 g/ha): 80%; pest or weed control at 320 g/ha (POLCO [7]; 320 g/ha): 90%; pest or weed control at 80 g/ha (VERPE; 80 g/ha): 80%; pest or weed control at 320 g/ha (VERPE; 320 g/ha): 80%; Pre-emergence effect at 320 g/ha against PHBPU in % (PHBPU [8]): 90%; pest or weed control at 320 g/ha (PHBPU [9]; Ipomoea purpurea, 504 h, read-out: Post-emergence effect against PHBPU in %): 80%; pest or weed control at 320 g/ha (MATIN [10]): 90%; pest or weed control at 80 g/ha (LOLRI [11]; 80 g/ha): 80%; pest or weed control at 320 g/ha (LOLRI [11]; 320 g/ha): 80%; pest or weed control at 320 g/ha (MATIN [12]): 80%; pest or weed control at 320 g/ha (POLCO [13]): 80%; Pre-emergence effect at 80 g/ha against AMARE in % (AMARE; 80 g/ha): 80%; pest or weed control at 320 g/ha (AMARE; Amaranthus retroflexus, 504 h, 320 g/ha, read-out: Pre-emergence effect at 320 g/ha against AMARE in %): 90%; pest or weed control at 320 g/ha (SETVI [14]): 100%; Pre-emergence effect at 80 g/ha against GLXMA in % (GLXMA [15]): 10%; Pre-emergence effect at 80 g/ha against TRZAS in % (TRZAS [16]): 20%; pest or weed control at 80 g/ha (DIGSA [17]; 80 g/ha): 80%; pest or weed control at 320 g/ha (DIGSA [17]; 320 g/ha): 90%

Question: With `COC(Oc1nn(-c2cccc(C)c2F)c(-c2ccnc(F)c2)c1Br)C(=O)O` (stereo not shown) [Example I-92] as the compound, how does the “Post-emergence effect against SETVI in %” value (SETVI [3]) read?
Answer: 80%

Question: And the “Post-emergence effect against ECHCG in %” value (ECHCG [4]; 80 g/ha)?
Answer: 80%

Question: What about the “Post-emergence effect against ECHCG in %” value (ECHCG [4]; 320 g/ha) of the same compound?
Answer: 90%

Question: And the “Post-emergence effect against PHBPU in %” value (PHBPU [9])?
Answer: 80%

Question: What about the “Post-emergence effect at 20 g/ha against ZEAMX in %” value (ZEAMX [18]) of the same compound?
Answer: 20%

Question: What about the “Post-emergence effect at 20 g/ha against TRZAS in %” value (TRZAS [19]; 20 g/ha, one-leaf stage, rated visually after about 3 weeks vs untreated controls) of the same compound?
Answer: 0%

Question: What about the “Post-emergence effect against TRZAS” value (TRZAS [19]; 80 g/ha) of the same compound?
Answer: 10%

Question: What about the “Post-emergence effect against TRZAS” value (TRZAS [19]; 320 g/ha) of the same compound?
Answer: 20%

Question: What about the “Post-emergence effect against GLXMA” value (GLXMA [20]) of the same compound?
Answer: 10%
